Reference: patent publication US20170190671A1, “BIS(ARYL)CATECHOL DERIVATIVES AS HERBICIDES” (E I DU PONT DE NEMOURS AND COMPANY, priority 2014, published 2017)

Legend:
Settings in all cases: scale 0 to 100
wild oat (Avenafatua) = experiment: Test D preemergence; type: in vivo, Avena fatua
Source text: Seeds of plant species selected from bluegrass (annual bluegrass, Poa annua), blackgrass (Alopecurus myosuroides), canarygrass (Phalaris minor), chickweed (common chickweed, Stellaria media), cutleaf geranium (Geranium dissectum), galium (catchweed bedstraw, Galium aparine), downy bromegrass (Bromus tectorum), field poppy (Papaver rhoeas), field violet (Viola arvensis), green foxtail (Setaria viridis), deadnettle (henbit deadnettle, Lamium amplexicaule), Italian ryegrass (Lolium multiflorum), kochia (Kochia scoparia), lambsquarters (Chenopodium album), oilseed rape (Brassica napus), pigweed (Amaranthus retroflexus), chamomile (scentless chamomile, Matricaria inodora), Russian thistle (Salsola kali), speedwell (bird's-eye speedwell, Veronica persica), spring barley (Hordeum vulgare), spring wheat (Triticum aestivum), wild buckwheat (Polygonum convolvulus), wild mustard (Sinapis arvensis), wild oat (Avenafatua), wild radish (Raphanus raphanistrum), windgrass (Apera spica-venti), winter barley (Hordeum vulgare), and winter wheat (Triticum aestivum) were planted into a silt loam soil and treated preemergence with test chemicals formulated in a non-phytotoxic solvent mixture which included a surfactant.
At the same time, these species were planted in pots containing Redi-Earth® planting medium (Scotts Company, 14111 Scottslawn Road, Marysville, Ohio 43041) comprising spaghnum peat moss, vermiculite, wetting agent and starter nutrients and treated with postemergence applications of the test chemicals formulated in the same manner. Plants ranged in height from 2 to 18 cm (1- to 4-leaf stage). Treated plants and controls were maintained in a controlled growth environment for 14 to 21 days after which time all species were compared to controls and visually evaluated. Plant response ratings, summarized in Table D, are based on a scale of 0 to 100 where 0 is no effect and 100 is complete control. A dash (-) response means no test result.

[1] = system: wild poinsettia (Euphorbia heterophylla); experiment: Test E preemergence; type: in vivo
In short: (§1)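 Preemergence: seeds in silt loam treated with compound in non-phytotoxic solvent with surfactant. Postemergence: plants at 1- to 4-leaf stage (2–18 cm) in peat-based medium sprayed likewise. Greenhouse 14–21 days, then visual rating vs controls, 0 (no effect) to 100 (complete control).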

[2] = system: horseweed (Conyza canadensis); experiment: Test E preemergence; type: in vivo
In short: as §1

SMILES	Plant response rating, Oat, Wild (wild oat (Avenafatua); 16 g ai/ha)	Plant response rating, Oat, Wild (wild oat (Avenafatua); 31 g ai/ha)	Plant response rating, Oat, Wild (wild oat (Avenafatua); 62 g ai/ha)	Plant response rating, Oat, Wild (wild oat (Avenafatua); 125 g ai/ha)	Plant response rating, Poinsettia, Wild ([1]; 16 g ai/ha)	Plant response rating, Poinsettia, Wild ([1]; 31 g ai/ha)	Plant response rating, Poinsettia, Wild ([1]; 62 g ai/ha)	Plant response rating, Poinsettia, Wild ([1]; 125 g ai/ha)	Plant response rating, Horseweed ([2]; 16 g ai/ha)	Plant response rating, Horseweed ([2]; 31 g ai/ha)	Plant response rating, Horseweed ([2]; 62 g ai/ha)	Plant response rating, Horseweed ([2]; 125 g ai/ha)
FC(F)(F)c1cnc(Oc2c(Br)cccc2Oc2ncc(Cl)cn2)nc1 [Compound 24]	0	15	25	75								
Fc1ccc(F)c(Oc2ncc(Cl)cn2)c1Oc1ncc(Cl)cn1 [Compound 34, 2,2′-[(3,6-difluoro-1,2-phenylene)bis(oxy)]bis[5-chloropyrimidine]]					0	10	20	50	0	0	0	0
